Tests used:
[1] = tested on: cocklebur (common cocklebur, Xanthium strumarium); assay: Test F pre-/postemergence plant response; assay type: in vivo; conditions: scale 0 to 100
Procedure, shortened: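 Seeds were sown in silt loam and sprayed preemergence; in parallel, plants at 2–18 cm (1- to 4-leaf) received postemergence sprays. Test chemicals were in a non-phytotoxic solvent with surfactant. After 14–21 days in the greenhouse, injury was rated visually against controls on a 0–100 scale (100 = complete control).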

melting point [°C]	SMILES	Plant response rating, Cocklebur ([1]; 31 g ai/ha Preemergence)	Plant response rating, Cocklebur ([1]; 125 g ai/ha Preemergence)
	FC(F)c1cc(-c2ccccc2Oc2ncc(Cl)cn2)no1 [Compound 35, 5-chloro-2-[2-[5-(difluoromethyl)-3-isoxazolyl]phenoxy]pyrimidine]	0	0
89 to 93	FC(F)c1cc(-c2ccccc2Oc2ncc(Br)cn2)no1 [Compound 62, 5-bromo-2-[2-[5-(difluoromethyl)-3-isoxazolyl]phenoxy]pyrimidine]		

— patent publication US10131652B2, “Pyrimidinyloxy benzene derivatives as herbicides” (E. I. DU PONT DE NEMOURS AND COMPANY, priority 2014, dated 2018)
